Experiment: Particle size measured using a particle size analyzer
Format: physicochemical
Conditions: before supercritical processing
Description: At first, pretreated salicylic acid is 50-100 micron. In Examples, the size of salicylic acid particles prepared in following manners was measured using a particle size analyzer. Spherical nanoparticles of which the particle size is in the range of 50 to 300 nm can be obtained according to the presence of a poly(ε-caprolactone-co-methylmethacrylate) as a biodegradable polymer and operating conditions in the reactor.
As shown in the following Table 1, the present Examples represent the operating conditions of the reactor in the step of formation of a spherical structure. The temperature and the pressure of the reactor must be each above 304.2 K and 73.8 bar. The operating parameters in the reactor are the temperature and the pressure in reactor, the amount of carbon dioxide as a supercritical fluid, and the amount of the mixed solution prepared in the preparation step. In Example 1, the mixed solution contains salicylic acid of 0.0016% by weight alone without a biodegradable polymer. In Example 2 to 8, the solution contains both of salicylic acid of 0.0016% by weight and the poly(ε-caprolactone-co-methylmethacrylate) of 0.0014% by weight as a biodegradable polymer. […] In Examples 1 and 3, the change was measured at 313K and 323K by adjusting the reactor temperature. […]

Structure (SMILES): O=C(O)c1ccccc1O [salicylic acid]
- particle size of pretreated salicylic acid: 50-100 micron
